PubChem BioAssay AID248 (DTP/NCI, 2004)
Several values for one entry are separate records, joined by “and”; a condition that tells them apart may be missing. Equal entries are not always repeated. Inconclusive results and toxic doses are left out. Rule as the data show it: active = T/C of 150% or more; inactive = T/C below 125%.

Tested on: L1210 leukemia ip in BDF1 mice, survival T/C
Test: NCI In Vivo Anticancer Drug Screen. Data for tumor model L1210 Leukemia (intraperitoneal) in B6D2F1 (BDF1) mice
Settings: endpoint: mean survival time, higher = longer survival
How it was run: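 Transplantable tumor model; survival measured in treated vs vehicle control mice. Value = treated/control.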

[1] = dose: 100.0 mg/kg/injection, schedule: Q04DX003 (ip), vehicle: Klucel (hydroxypropylcellulose) (HPC)
[2] = dose: 100.0 mg/kg/injection, schedule: Q04DX002 (ip), vehicle: saline with Tween-80
[3] = dose: 100.0 mg/kg/injection, schedule: Q04DX002 (ip), vehicle: saline
[4] = dose: 200.0 mg/kg/injection, schedule: Q04DX002 (ip), vehicle: saline
[5] = dose: 50.0 mg/kg/injection, schedule: Q01DX001 (ip), vehicle: saline
[6] = dose: 100.0 mg/kg/injection, schedule: Q01DX001 (ip), vehicle: saline
[7] = dose: 200.0 mg/kg/injection, schedule: Q01DX001 (ip), vehicle: saline
[8] = dose: 400.0 mg/kg/injection, schedule: Q01DX001 (ip), vehicle: saline
[9] = dose: 100.0 mg/kg/injection, schedule: Q01DX009 (ip), vehicle: Klucel (hydroxypropylcellulose) (HPC)
[10] = dose: 200.0 mg/kg/injection, schedule: Q01DX009 (ip), vehicle: Klucel (hydroxypropylcellulose) (HPC)
[11] = dose: 400.0 mg/kg/injection, schedule: Q01DX009 (ip), vehicle: Klucel (hydroxypropylcellulose) (HPC)

Measured: T/C

Cc1ccc(C[As](C)(=O)O)cc1
inactive: dose: 25.0 mg/kg/injection, schedule: Q04DX003 (ip), vehicle: Klucel (hydroxypropylcellulose) (HPC) 100 % of control | dose: 50.0 mg/kg/injection, schedule: Q04DX003 (ip), vehicle: Klucel (hydroxypropylcellulose) (HPC) 98 % of control | [1] 97 % of control

Cc1ccc(C)c(C(=O)CCC(=O)O)c1
inactive: dose: 25.0 mg/kg/injection, schedule: Q01DX009 (ip), vehicle: saline with Tween-80 100 % of control | dose: 50.0 mg/kg/injection, schedule: Q01DX009 (ip), vehicle: saline with Tween-80 96 % of control | dose: 100.0 mg/kg/injection, schedule: Q01DX009 (ip), vehicle: saline with Tween-80 105 % of control | dose: 100.0 mg/kg/injection, schedule: Q01DX009 (ip), vehicle: saline 95 % of control | dose: 100.0 mg/kg/injection, schedule: Q04DX003 (ip), vehicle: saline with Tween-80 91 % of control | dose: 200.0 mg/kg/injection, schedule: Q01DX009 (ip), vehicle: saline with Tween-80 94 % of control | dose: 200.0 mg/kg/injection, schedule: Q01DX009 (ip), vehicle: saline 95 % of control | dose: 200.0 mg/kg/injection, schedule: Q04DX003 (ip), vehicle: saline with Tween-80 92 % of control | dose: 400.0 mg/kg/injection, schedule: Q01DX009 (ip), vehicle: saline 95 % of control | dose: 400.0 mg/kg/injection, schedule: Q04DX003 (ip), vehicle: saline with Tween-80 97 % of control

NCC(=O)N/C(=C/c1ccccc1)C(=O)NCC(=O)O
inactive: [2] 97 % of control | dose: 200.0 mg/kg/injection, schedule: Q04DX002 (ip), vehicle: saline with Tween-80 97 % of control | dose: 400.0 mg/kg/injection, schedule: Q04DX002 (ip), vehicle: saline with Tween-80 97 % of control

O=C(Nc1ccc(Cl)cc1)Nc1ccc(Cl)c(C(F)(F)F)c1
inactive: dose: 100.0 mg/kg/injection, schedule: Q01DX001 (ip), vehicle: carboxymethylcellulose (CMC) 108 % of control | dose: 200.0 mg/kg/injection, schedule: Q01DX001 (ip), vehicle: carboxymethylcellulose (CMC) 111 % of control | dose: 400.0 mg/kg/injection, schedule: Q01DX001 (ip), vehicle: carboxymethylcellulose (CMC) 111 % of control

COC(=O)C(C)NC(=O)C(COC1OC(COC(C)=O)C(OC(C)=O)C(OC(C)=O)C1NC(C)=O)NC(=O)OCc1ccccc1 (centres undefined)
inactive: dose: 50.0 mg/kg/injection, schedule: Q04DX002 (ip), vehicle: Klucel (hydroxypropylcellulose) (HPC) 98 % of control | dose: 100.0 mg/kg/injection, schedule: Q04DX002 (ip), vehicle: Klucel (hydroxypropylcellulose) (HPC) 91 % of control | dose: 200.0 mg/kg/injection, schedule: Q04DX002 (ip), vehicle: Klucel (hydroxypropylcellulose) (HPC) 98 % of control

O=c1[nH]cnc2c1ncn2C1CCCCC1
inactive: dose: 23.12 mg/kg/injection, schedule: Q01DX Z (ip), vehicle: carboxymethylcellulose (CMC) 100 % of control | dose: 46.25 mg/kg/injection, schedule: Q01DX Z (ip), vehicle: carboxymethylcellulose (CMC) 105 % of control | dose: 46.25 mg/kg/injection, schedule: Q01DX Z (oral), vehicle: carboxymethylcellulose (CMC) 94 % of control | dose: 92.5 mg/kg/injection, schedule: Q01DX Z (ip), vehicle: carboxymethylcellulose (CMC) 96 % of control | dose: 92.5 mg/kg/injection, schedule: Q01DX Z (oral), vehicle: carboxymethylcellulose (CMC) 97 % of control | dose: 185.0 mg/kg/injection, schedule: Q01DX Z (ip), vehicle: carboxymethylcellulose (CMC) 100 % of control | dose: 185.0 mg/kg/injection, schedule: Q01DX Z (oral), vehicle: carboxymethylcellulose (CMC) 100 % of control | dose: 370.0 mg/kg/injection, schedule: Q01DX Z (oral), vehicle: carboxymethylcellulose (CMC) 97 % of control

CNc1ccccc1C(=O)N/N=C/c1ccc(OC)cc1
inactive: [3] 102 % of control | [4] 99 % of control | dose: 400.0 mg/kg/injection, schedule: Q04DX002 (ip), vehicle: saline 102 % of control

CC(C)(C)c1cc(C[N+](C)(C)C)cc(C(C)(C)C)n1
inactive: dose: 50.0 mg/kg/injection, schedule: Q04DX002 (ip), vehicle: saline with Tween-80 92 % of control | [2] 99 % of control

Nc1cc(=O)[nH]c(=S)n1-c1ccc(Br)cc1
inactive: [5] 93 % of control | [6] 102 % of control | [7] 93 % of control | [8] 108 % of control

FC(F)OC(F)(F)C(F)Cl (centres undefined)
inactive: [6] 89 % of control | [7] 89 % of control | [8] 97 % of control

CCCCn1c(N)cc(=O)[nH]c1=S
inactive: [5] 100 % of control | [6] 93 % of control | [7] 106 % of control | [8] 100 % of control

COC(=O)CCC(=O)c1ccc(OC)cc1
inactive: [9] 94 % of control | [10] 100 % of control | [11] 96 % of control

O=c1[nH]cc(CC(F)C(F)(F)F)c(=O)[nH]1 (centres undefined)
inactive: dose: 60.0 mg/kg/injection, schedule: Q01DX001 (ip), vehicle: DMSO 91 % of control | dose: 120.0 mg/kg/injection, schedule: Q01DX001 (ip), vehicle: DMSO 105 % of control

Cc1[nH]c(=O)[nH]c(=O)c1N(CCF)CCCl
inactive: dose: 5.0 mg/kg/injection, schedule: Q01DX009 (ip), vehicle: Klucel (hydroxypropylcellulose) (HPC) 104 % of control and 107 % of control | dose: 5.0 mg/kg/injection, schedule: Q01DX009 (ip), vehicle: saline 106 % of control | dose: 9.0 mg/kg/injection, schedule: Q01DX009 (ip), vehicle: Klucel (hydroxypropylcellulose) (HPC) 108 % of control | dose: 10.0 mg/kg/injection, schedule: Q01DX009 (ip), vehicle: Klucel (hydroxypropylcellulose) (HPC) 112 % of control | dose: 10.0 mg/kg/injection, schedule: Q01DX009 (ip), vehicle: saline 112 % of control | dose: 14.0 mg/kg/injection, schedule: Q01DX009 (ip), vehicle: Klucel (hydroxypropylcellulose) (HPC) 120 % of control | dose: 20.0 mg/kg/injection, schedule: Q01DX009 (ip), vehicle: Klucel (hydroxypropylcellulose) (HPC) 110 % of control | dose: 20.0 mg/kg/injection, schedule: Q01DX009 (ip), vehicle: saline 124 % of control | dose: 23.0 mg/kg/injection, schedule: Q01DX009 (ip), vehicle: Klucel (hydroxypropylcellulose) (HPC) 123 % of control | dose: 23.0 mg/kg/injection, schedule: Q04DX003 (ip), vehicle: Klucel (hydroxypropylcellulose) (HPC) 108 % of control | dose: 39.0 mg/kg/injection, schedule: Q01DX009 (ip), vehicle: Klucel (hydroxypropylcellulose) (HPC) 94 % of control | dose: 39.0 mg/kg/injection, schedule: Q04DX003 (ip), vehicle: Klucel (hydroxypropylcellulose) (HPC) 116 % of control | dose: 65.0 mg/kg/injection, schedule: Q01DX001 (ip), vehicle: Klucel (hydroxypropylcellulose) (HPC) 104 % of control | dose: 108.0 mg/kg/injection, schedule: Q01DX001 (ip), vehicle: Klucel (hydroxypropylcellulose) (HPC) 110 % of control | dose: 108.0 mg/kg/injection, schedule: Q04DX003 (ip), vehicle: Klucel (hydroxypropylcellulose) (HPC) 96 % of control | dose: 180.0 mg/kg/injection, schedule: Q01DX001 (ip), vehicle: Klucel (hydroxypropylcellulose) (HPC) 120 % of control | dose: 180.0 mg/kg/injection, schedule: Q04DX003 (ip), vehicle: Klucel (hydroxypropylcellulose) (HPC) 96 % of control

CC(C)NC(C)Cc1ccccc1 (centres undefined)
inactive: dose: 25.0 mg/kg/injection, schedule: Q01DX001 (ip), vehicle: saline 93 % of control | [5] 91 % of control

CCCCCc1ccc(C(C)=O)cc1
inactive: dose: 100.0 mg/kg/injection, schedule: Q04DX003 (ip), vehicle: saline 100 % of control | dose: 200.0 mg/kg/injection, schedule: Q04DX003 (ip), vehicle: saline 114 % of control | dose: 400.0 mg/kg/injection, schedule: Q04DX003 (ip), vehicle: saline 114 % of control

CCN=C(N)SCC
inactive: [3] 95 % of control | [4] 95 % of control

COc1ccc([N+](=O)[O-])c2c1CONC2c1c(CO)cnc(C)c1O (centres undefined)
inactive: dose: 100.0 mg/kg/injection, schedule: Q04DX003 (ip), vehicle: acetone 90 % of control | dose: 200.0 mg/kg/injection, schedule: Q04DX003 (ip), vehicle: acetone 96 % of control | dose: 400.0 mg/kg/injection, schedule: Q04DX003 (ip), vehicle: acetone 89 % of control

CC(C)=C1C2CCC1C(COS(=O)(=O)c1ccc(C)cc1)C2COS(=O)(=O)c1ccc(C)cc1 (centres undefined)
inactive: [9] 96 % of control | [1] 98 % of control | [10] 100 % of control | dose: 200.0 mg/kg/injection, schedule: Q04DX003 (ip), vehicle: Klucel (hydroxypropylcellulose) (HPC) 104 % of control | [11] 94 % of control | dose: 400.0 mg/kg/injection, schedule: Q04DX003 (ip), vehicle: Klucel (hydroxypropylcellulose) (HPC) 102 % of control
